In the assay the test system is HeLa cells. The experiment in a line: LNP cellular uptake / eGFP mRNA expression by FACS flow cytometry. The assay is classed as cell-based, Human. The following applies: eGFP mRNA cargo. As to the method:
LNP cellular uptake for the LNP formulations in Table 10 was tested. HeLa cells (Human epithelial cells, ATCC) were seeded at 0.05×10^6 cells per well in 1000 μL DMEM media (Dulbecco's Modified Eagle Medium, GIBCO) containing 10% FBS (GIBCO) and 5% penicillin streptomycin (GIBCO) in 24-well plate. The LNP formulations of Table 10 containing the eGFP mRNA were prepared with a total treatment dose of 250 ng and 1000 ng eGFP mRNA per well in triplicates. The cells were incubated for 24 h at 37° C. Cells were then trypsinized and resuspended in PBS and centrifuged at 200 g for 5 min. The supernatant was removed, and the pelleted cells were redispersed in 500 μL of PBS+2% FBS per well and transferred to FACS tubes and read on a flow cytometry analyzer (BD FACSCanto™ II). The data presented are the mean fluorescent intensity of the signals from each cell treatment analyzed. For transfection efficiency, treated cells were gated for EGFP expression, and the data presented are the percentage of cells analyzed with higher EGFP expression than untreated cells. […] HeLa cells were treated with the various formulations for 24 hours before using fluorescence activated cell sorting (FACS) flow cytometry to quantify eGFP expression in the treated cells. The higher the mean fluorescence intensity, the greater the expression of eGFP, ant therefore, the greater the transfection efficiency.
On the technique in general: A flow cytometer gives signals particle by particle.

SMILES strings stand for the structures.

Take `CCCCCCCCCCCOC(=O)CCCCCN(CCO)CCCCCCCC(=O)OC(CCCCCCCC)CCCCCCCC` [SM-102]: the “efficacy (transfection), findings from all the experiments of Example 2” value is on record as “more efficacious ionizable lipid than D-Lin-MC3-DMA”.
